Data from the supplement of paper PMC11208160.

Test: recombinant barcode read abundance after kanamycin selection (control-corrected) (log10(CPM+1)); higher = more efficient recombination; sequences stand for … in AGTGCAGAGAAAATCGGCCAGTTTTCTCTGCCTGCAGTCCGCATGCCGT…AGATTTATGCAGCGGACTGCCTTTCTCCCAAAGTGATAAACCGGACAGTATCATGGACCGGTTTTCCCGGTAATCCGTATTTGCAAGGTTGGTTTCACT; site = the 11-nt target
Procedure, shortened: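 Recombination efficiency was calculated from barcode counts at recombinant junctions, normalized to counts per million, averaged and corrected by the control. Each value is given as log10(CPM+1). The constructs were Gibson-cloned oligos (promoter, target, barcode, J23119-driven first 104 bridge RNA bases) in a vector with the remaining 73 bp and a T7-inducible recombinase, co-electroporated into E. coli with a donor plasmid and plated in duplicate on chloramphenicol/ampicillin LB agar (control) or chloramphenicol/ampicillin/kanamycin with 0.1 mM IPTG.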
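Further: IS621 recombinase and bridge RNA in Escherichia coli cells.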

Sequence | recombinant barcode read abundance (log10)
GCCTGTTCTTGGGTTCTAACCTGTTGCCT (site GCCTGTTCTAG) | 0.462
GCCTGTTCTTGGGTTCTAACCTGTTGCCT (site GGCTGTTCTAG) | 0.0257
GCCTGTTCTTGGGTTCTAACCTGTTGCCT (site GTCTGTTCTAG) | 0.137
GCGAACACTTGGGTTCTAACCTGTTGCTT (site GCGAACACTAA) | 1.9
GCGAACACTTGGGTTCTAACCTGTTGCTT (site GCGAAGTCTAA) | 0.194
GCGAGCCCTTGGGTTCTAACCTGTTGCGT (site GCGAGCCCTAC) | 2.52
GCGAGCCCTTGGGTTCTAACCTGTTGCGT (site GCTAGCCCTCC) | 0.0583
GCGCCCTCTTGGGTTCTAACCTGTTGCCG (site CAATTACCTAA) | 0.194
GCGCCCTCTTGGGTTCTAACCTGTTGCCG (site GCGCCCTCTCG) | 0.606
GCGCCTCCTTGGGTTCTAACCTGTTGCAT (site GCGACTCCTAT) | 0.144
GCGCCTCCTTGGGTTCTAACCTGTTGCAT (site GCGCCTCCTAT) | 0.504
GCGCCTCCTTGGGTTCTAACCTGTTGCAT (site GCGGCTCCTAT) | 0
GCGCCTCCTTGGGTTCTAACCTGTTGCAT (site GCGTCTCCTAT) | 0.0165
GCGCGCCCTTGGGTTCTAACCTGTTGCGG (site GCGCGCCCTCA) | 0.101
GCGCGCCCTTGGGTTCTAACCTGTTGCGG (site GCGCGCCCTCC) | 1.63
GCGCGTGCTTGGGTTCTAACCTGTTGCCT (site GCACGTGCTAG) | 1.11
GCGCGTGCTTGGGTTCTAACCTGTTGCCT (site GCCCGTGCTAG) | 0.539
GCGCGTGCTTGGGTTCTAACCTGTTGCCT (site GCGCGTGCTAG) | 0.584
GCGCGTGCTTGGGTTCTAACCTGTTGCCT (site GCTCGTGCTAG) | 0.11
GCGCTAGCTTGGGTTCTAACCTGTTGCCT (site ACGCTAGCTAG) | 0.125
GCGCTAGCTTGGGTTCTAACCTGTTGCCT (site CCGCTAGCTAG) | 0.0832
GCGCTAGCTTGGGTTCTAACCTGTTGCCT (site GCGCTAGCTAG) | 0.205

Sequence | recombinant barcode read abundance (log10)
GCGCTAGCTTGGGTTCTAACCTGTTGCCT (site TCGCTAGCTAG) | 0.111
GCGCTTACTTGGGTTCTAACCTGTTGCCT (site GAGCTTACTAG) | 0.191
GCGCTTACTTGGGTTCTAACCTGTTGCCT (site GCGCTTACTAG) | 0.665
GCGCTTACTTGGGTTCTAACCTGTTGCCT (site GGGCTTACTAG) | 0.0205
GCGCTTACTTGGGTTCTAACCTGTTGCCT (site GTGCTTACTAG) | 0.0591
GCGGAAGCTTGGGTTCTAACCTGTTGCCT (site GAGGAAGCTAG) | 0.192
GCGGAAGCTTGGGTTCTAACCTGTTGCCT (site GCGGAAGCTAG) | 0.312
GCGGAAGCTTGGGTTCTAACCTGTTGCCT (site GGGGAAGCTAG) | 0.469
GCGGAAGCTTGGGTTCTAACCTGTTGCCT (site GTGGAAGCTAG) | 0.181
GCGGGGTCTTGGGTTCTAACCTGTTGCCT (site ACGGGGTCTAG) | 0.786
GCGGGGTCTTGGGTTCTAACCTGTTGCCT (site CCGGGGTCTAG) | 0.627
GCGGGGTCTTGGGTTCTAACCTGTTGCCT (site GCGGGGTCTAG) | 1.2
GCGGGGTCTTGGGTTCTAACCTGTTGCCT (site TCGGGGTCTAG) | 0.231
GCGGTATCTTGGGTTCTAACCTGTTGCCT (site GCGGTATCTAG) | 1.21
GCGGTATCTTGGGTTCTAACCTGTTGCCT (site GGGGTATCTAG) | 0.105
GCGGTGACTTGGGTTCTAACCTGTTGCCT (site ACGGTGACTAG) | 0.942
GCGGTGACTTGGGTTCTAACCTGTTGCCT (site CCGGTGACTAG) | 0.172
GCGGTGACTTGGGTTCTAACCTGTTGCCT (site GCGGTGACTAG) | 1.48
GCGGTGACTTGGGTTCTAACCTGTTGCCT (site TCGGTGACTAG) | 0.074
GCGTACCCTTGGGTTCTAACCTGTTGCCT (site GAGTACCCTAG) | 0.404
GCGTACCCTTGGGTTCTAACCTGTTGCCT (site GCGTACCCTAG) | 1.41
GCGTACCCTTGGGTTCTAACCTGTTGCCT (site GGGTACCCTAG) | 0.0245

Sequence | recombinant barcode read abundance (log10)
GCGTACCCTTGGGTTCTAACCTGTTGCCT (site GTGTACCCTAG) | 0.0662
GCGTACTCTTGGGTTCTAACCTGTTGCCT (site GCGGACTCTTG) | 0.0368
GCGTACTCTTGGGTTCTAACCTGTTGCCT (site GCGTACTCTAG) | 2.02
GCGTCCACTTGGGTTCTAACCTGTTGCCT (site GCATCCACTAG) | 0.398
GCGTCCACTTGGGTTCTAACCTGTTGCCT (site GCGTCCACTAG) | 0.0111
GCGTGTACTTGGGTTCTAACCTGTTGCCT (site GCGGGTACTAG) | 0.208
GCGTGTACTTGGGTTCTAACCTGTTGCCT (site GCGTGTACTAG) | 0.948
GCTAAGTCTTGGGTTCTAACCTGTTGCGT (site GCGGAGTCTAC) | 0.166
GCTAAGTCTTGGGTTCTAACCTGTTGCGT (site GCTAAGTCTAC) | 2.61
GCTAGTCCTTGGGTTCTAACCTGTTGCGT (site GCTAGTCCTAC) | 2.14
GCTAGTCCTTGGGTTCTAACCTGTTGCGT (site GCTAGTCCTCA) | 0.0737
GCTATGTCTTGGGTTCTAACCTGTTGCCT (site GCTATGTCTAG) | 1.42
GCTATGTCTTGGGTTCTAACCTGTTGCCT (site GGTATGTCTAA) | 0.0851
GCTCAGTCTTGGGTTCTAACCTGTTGCCT (site GCTCAGACTAG) | 0.00917
GCTCAGTCTTGGGTTCTAACCTGTTGCCT (site GCTCAGCCTAG) | 0.645
GCTCAGTCTTGGGTTCTAACCTGTTGCCT (site GCTCAGGCTAG) | 0.218
GCTCAGTCTTGGGTTCTAACCTGTTGCCT (site GCTCAGTCTAG) | 1.78
GCTCATGCTTGGGTTCTAACCTGTTGCCT (site GCTCATGCTAG) | 1.92
GCTCATGCTTGGGTTCTAACCTGTTGCCT (site GCTCATTCTAG) | 0.132
GCTCATTCTTGGGTTCTAACCTGTTGCCT (site GCTCATGCTAG) | 0
GCTCATTCTTGGGTTCTAACCTGTTGCCT (site GCTCATTCTAG) | 0.557
GCTCCATCTTGGGTTCTAACCTGTTGCCT (site GATCCATCTAG) | 0.0768

Sequence | recombinant barcode read abundance (log10)
GCTCCATCTTGGGTTCTAACCTGTTGCCT (site GCTCCATCTAG) | 0.941
GCTCCATCTTGGGTTCTAACCTGTTGCCT (site GGTCCATCTAG) | 0.122
GCTCCATCTTGGGTTCTAACCTGTTGCCT (site GTTCCATCTAG) | 0.291
GCTCCTCCTTGGGTTCTAACCTGTTGCAT (site ATAGAGTCTCG) | 0.0486
GCTCCTCCTTGGGTTCTAACCTGTTGCAT (site GCTCCTCCTAT) | 1.15
GCTCGAACTTGGGTTCTAACCTGTTGCCT (site GCACGAACTAG) | 0.46
GCTCGAACTTGGGTTCTAACCTGTTGCCT (site GCCCGAACTAG) | 0.138
GCTCGAACTTGGGTTCTAACCTGTTGCCT (site GCGCGAACTAG) | 0.00752
GCTCGAACTTGGGTTCTAACCTGTTGCCT (site GCTCGAACTAG) | 0.38
GCTCGTGCTTGGGTTCTAACCTGTTGCCT (site GCACGTGCTAG) | 0.69
GCTCGTGCTTGGGTTCTAACCTGTTGCCT (site GCCCGTGCTAG) | 0.278
GCTCGTGCTTGGGTTCTAACCTGTTGCCT (site GCGCGTGCTAG) | 0.238
GCTCGTGCTTGGGTTCTAACCTGTTGCCT (site GCTCGTGCTAG) | 1.1
GCTGAGGCTTGGGTTCTAACCTGTTGCCA (site CTCTGCTCTGA) | 0.165
GCTGAGGCTTGGGTTCTAACCTGTTGCCA (site GCTGAGGCTTG) | 0.636
GCTGAGTCTTGGGTTCTAACCTGTTGCTA (site AGGCCCACTAT) | 0.0625
GCTGAGTCTTGGGTTCTAACCTGTTGCTA (site GCTGAGTCTTA) | 2.08
GCTGCTCCTTGGGTTCTAACCTGTTGCGT (site GCGGGTCCTAC) | 0.0749
GCTGCTCCTTGGGTTCTAACCTGTTGCGT (site GCTGCTCCTAC) | 1.82
GCTGGGCCTTGGGTTCTAACCTGTTGCGA (site GATGGGCCTAC) | 0.0848
